# Laboratory results published in patent US9624209B2, “Substituted phenylureas and phenylamides as vanilloid receptor ligands” (Gruenenthal GmbH, priority 2009, dated 2017).
# Target: T1, vanilloid receptor 1 (VR1/TRPV1 receptor) (Homo sapiens, UniProt Q8NER1)
# T1 construct: expressed in transfected cells; host or cells: CHO K1 cells (ECACC), stably transfected
# Experiment: VR1/TRPV1 receptor affinity, capsaicin stimulus (human)
# Assay type: cell-based, human being
# Set-up: key to (f) Ki (human being) [nM] Cap: result in words: AG=agonist; pAG=partial agonist; NE=no effect
# Conditions: @ 5 μM, Tables 8-12, read-out: (f) Ki (human being) [nM] Cap: inhibition (as a percentage)
# T1 sequence (Q8NER1 whole entry): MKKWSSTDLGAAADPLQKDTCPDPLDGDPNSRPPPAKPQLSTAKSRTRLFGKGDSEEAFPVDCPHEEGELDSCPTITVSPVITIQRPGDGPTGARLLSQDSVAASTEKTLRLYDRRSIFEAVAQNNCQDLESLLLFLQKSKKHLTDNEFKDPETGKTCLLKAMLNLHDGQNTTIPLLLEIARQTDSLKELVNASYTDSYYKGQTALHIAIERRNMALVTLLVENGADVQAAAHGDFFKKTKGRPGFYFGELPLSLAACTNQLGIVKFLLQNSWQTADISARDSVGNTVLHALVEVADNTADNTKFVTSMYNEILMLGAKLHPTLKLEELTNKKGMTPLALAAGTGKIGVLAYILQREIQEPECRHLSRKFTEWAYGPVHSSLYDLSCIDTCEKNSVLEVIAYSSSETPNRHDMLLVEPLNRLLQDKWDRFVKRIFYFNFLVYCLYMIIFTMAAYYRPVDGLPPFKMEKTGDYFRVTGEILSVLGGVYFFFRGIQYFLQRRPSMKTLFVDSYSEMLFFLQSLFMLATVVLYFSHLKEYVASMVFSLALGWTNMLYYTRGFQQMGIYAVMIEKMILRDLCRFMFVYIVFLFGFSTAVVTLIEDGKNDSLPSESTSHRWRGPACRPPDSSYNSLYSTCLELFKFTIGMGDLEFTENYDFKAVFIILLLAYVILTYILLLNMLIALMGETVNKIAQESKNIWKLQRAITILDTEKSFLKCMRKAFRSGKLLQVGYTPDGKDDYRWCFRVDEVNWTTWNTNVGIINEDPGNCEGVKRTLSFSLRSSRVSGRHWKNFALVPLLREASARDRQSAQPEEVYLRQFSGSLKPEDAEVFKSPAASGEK
row,inhibition at 5 µM [%],SMILES
1,54,"CC(C(=O)NCc1cc(C(F)(F)F)nn1-c1ccc(F)c(F)c1)c1ccc(N2CCCS2(=O)=O)c(F)c1 (stereo not shown) [Example C3, N-[[2-(3,4-Difluoro-phenyl)-5-(trifluoromethyl)-2H-pyrazol-3-yl]-methyl]-2-[4-(1,1-dioxo-[1,2]thiazolidin-2-yl)-3-fluoro-phenyl]-propionamide]"
2,13,"O=C(NCc1cc(C(F)(F)F)nn1-c1cccc(F)c1)Nc1ccc(N2CCCC2)c(F)c1 [Example C4, 1-[[2-(3-Fluorophenyl)-5-(trifluoromethyl)-2H-pyrazol-3-yl]-methyl]-3-(3-fluoro-4-pyrrolidin-1-yl-phenyl)-urea]"
3,50,"O=C(NCc1cc(C(F)(F)F)nn1-c1cccc(F)c1)Nc1ccc(N2CC(O)C2)c(F)c1 [Example C9, 1-[3-Fluoro-4-(3-hydroxy-azetidin-1-yl)-phenyl]-3-[[2-(3-fluorophenyl)-5-(trifluoromethyl)-2H-pyrazol-3-yl]-methyl]-urea]"

# Second part, the compound before the results:
row,SMILES,inhibition at 5 µM [%]
1,"O=C(NCc1cc(C(F)(F)F)nn1-c1cccc(Cl)c1)Nc1ccc(CN2CCCC2)cc1 [Example B99, 1-[[2-(3-Chlorophenyl)-5-(trifluoromethyl)-2H-pyrazol-3-yl]-methyl]-3-[4-(pyrrolidin-1-yl-methyl)-phenyl]-urea]",43
2,"O=C(NCc1cc(C(F)(F)F)nn1-c1cccc(Cl)c1)Nc1ccc(CN2CCCCC2)c(F)c1 [Example B100, 1-[[2-(3-Chlorophenyl)-5-(trifluoromethyl)-2H-pyrazol-3-yl]-methyl]-3-[3-fluoro-4-(piperidin-1-yl-methyl)-phenyl]-urea]",17
3,"CC(C)(C)c1cc(CNC(=O)Nc2ccc(CN3CCCC3)c(F)c2)n(-c2cccc(Cl)c2)n1 [Example B101, 1-[[5-tert-Butyl-2-(3-chlorophenyl)-2H-pyrazol-3-yl]-methyl]-3-[3-fluoro-4-(pyrrolidin-1-yl-methyl)-phenyl]-urea]",43

# Same assay, conditions: Tables 8-12
row,(f) Ki (human being) [nM] Cap: result in words,SMILES
1,AG,"CC(C(=O)NCc1cc(C(C)(C)C)nn1-c1cccc(Cl)c1)c1ccc(S(C)(=O)=O)c(F)c1 (stereo not shown) [Example D1, N-[[5-tert-Butyl-2-(3-chlorophenyl)-2H-pyrazol-3-yl]-methyl]-2-(3-fluoro-4-methylsulfonyl-phenyl)-propionamide]"

# Same assay, conditions: Tables 8-12, read-out: (f) Ki (human being) [nM] Cap
row,Ki [nM],SMILES
1,49,"CC(C(=O)NCc1cc(C(F)(F)F)nn1-c1cccc(Cl)c1)c1ccc(N2CCCS2(=O)=O)c(F)c1 (stereo not shown) [Example C1, N-[[2-(3-Chlorophenyl)-5-(trifluoromethyl)-2H-pyrazol-3-yl]-methyl]-2-[4-(1,1-dioxo-[1,2]thiazolidin-2-yl)-3-fluoro-phenyl]-propionamide]"
2,50,"CC(C(=O)NCc1cc(C(C)(C)C)nn1-c1ccc(F)c(Cl)c1)c1ccc(N2CCCS2(=O)=O)c(F)c1 (stereo not shown) [Example C2, N-[[5-tert-Butyl-2-(3-chloro-4-fluoro-phenyl)-2H-pyrazol-3-yl]-methyl]-2-[4-(1,1-dioxo-[1,2]thiazolidin-2-yl)-3-fluoro-phenyl]-propionamid]"
3,44,"O=C(NCc1cc(C(F)(F)F)nn1-c1cccc(Cl)c1)Nc1ccc(N2CCOCC2)c(F)c1 [Example C5, 1-[[2-(3-Chlorophenyl)-5-(trifluoromethyl)-2H-pyrazol-3-yl]-methyl]-3-(3-fluoro-4-morpholin-4-yl-phenyl)-urea]"
4,43,"O=C(NCc1cc(C(F)(F)F)nn1-c1cccc(Cl)c1)Nc1ccc(N2CC(O)C2)c(F)c1 [Example C6, 1-[[2-(3-Chlorophenyl)-5-(trifluoromethyl)-2H-pyrazol-3-yl]-methyl]-3-[3-fluoro-4-(3-hydroxy-azetidin-1-yl)-phenyl]-urea]"
5,15,"CC(C)(C)c1cc(CNC(=O)Nc2ccc(N3CC(O)C3)c(F)c2)n(-c2cccc(Cl)c2)n1 [Example C7, 1-[[5-tert-Butyl-2-(3-chlorophenyl)-2H-pyrazol-3-yl]-methyl]-3-[3-fluoro-4-(3-hydroxy-azetidin-1-yl)-phenyl]-urea]"
6,73,"CC(C(=O)NCc1cc(C(F)(F)F)nn1-c1cccc(Cl)c1)c1ccc(S(C)(=O)=O)c(F)c1 (stereo not shown) [Example D2, N-[[2-(3-Chlorophenyl)-5-(trifluoromethyl)-2H-pyrazol-3-yl]-methyl]-2-(3-fluoro-4-methylsulfonyl-phenyl)-propionamide]"

# Second part, the compound before the results:
row,SMILES,Ki [nM]
1,"CCS(=O)(=O)NCc1ccc(NC(=O)NCc2cc(C(C)(C)C)nn2-c2cccc(C)c2)cc1 [Example B92, 1-[[5-tert-Butyl-2-(m-tolyl)-2H-pyrazol-3-yl]-methyl]-3-[4-[[(ethylsulfonyl)amino]-methyl]-phenyl]-urea]",67
2,"CC(C(=O)NCc1cc(C(C)(C)C)nn1-c1cccc(Cl)c1)c1ccc(CNS(N)(=O)=O)c(F)c1 (stereo not shown) [Example B93, N-[[5-tert-Butyl-2-(3-chlorophenyl)-2H-pyrazol-3-yl]-methyl]-2-[3-fluoro-4-[(sulfamoylamino)-methyl]-phenyl]-propionamide]",4
3,"CC(C)c1cccc(-n2nc(C(F)(F)F)cc2CNC(=O)C(C)c2ccc(CNS(N)(=O)=O)c(F)c2)c1 (stereo not shown) [Example B94, 2-[3-Fluoro-4-[(sulfamoylamino)-methyl]-phenyl]-N-[[2-(3-isopropyl-phenyl)-5-(trifluoromethyl)-2H-pyrazol-3-yl]-methyl]-propionamide]",0.9
4,"CC(C(=O)NCc1cc(C2CC2)nn1-c1cccc(Cl)c1)c1ccc(CNS(N)(=O)=O)c(F)c1 (stereo not shown) [Example B95, N-[[2-(3-Chlorophenyl)-5-cyclopropyl-2H-pyrazol-3-yl]-methyl]-2-[3-fluoro-4-[(sulfamoylamino)-methyl]-phenyl]-propionamide]",22
5,"CC(C(=O)NCc1cc(C(C)(C)C)nn1-c1ccc(F)c(Cl)c1)c1ccc(CNS(N)(=O)=O)c(F)c1 (stereo not shown) [Example B96, N-[[5-tert-Butyl-2-(3-chloro-4-fluoro-phenyl)-2H-pyrazol-3-yl]-methyl]-2-[3-fluoro-4-[(sulfamoylamino)-methyl]-phenyl]-propionamide]",0.9
6,"CC(C(=O)NCc1cc(C(F)(F)F)nn1-c1cccc(Cl)c1)c1ccc(CNS(N)(=O)=O)c(F)c1 (stereo not shown) [Example B97, N-[[2-(3-Chlorophenyl)-5-(trifluoromethyl)-2H-pyrazol-3-yl]-methyl]-2-[3-fluoro-4-[(sulfamoylamino)-methyl]-phenyl]-propionamide]",1
7,"COc1cc(C(C)C(=O)NCc2cc(C(C)(C)C)nn2-c2cccc(Cl)c2)ccc1CNS(C)(=O)=O (stereo not shown) [Example B98, N-[[5-tert-Butyl-2-(3-chlorophenyl)-2H-pyrazol-3-yl]-methyl]-2-[4-(methanesulfonamido-methyl)-3-methoxy-phenyl]-propionamide]",3
8,"CC(C(=O)NCc1cc(C(F)(F)F)nn1-c1cccc(Cl)c1)c1ccc(CNS(N)(=O)=O)cc1 (stereo not shown) [Example B102, N-[[2-(3-Chlorophenyl)-5-(trifluoromethyl)-2H-pyrazol-3-yl]-methyl]-2-[4-[(sulfamoylamino)-methyl]-phenyl]-propionamide]",1
9,"CC(C(=O)NCc1cc(C(C)(C)C)nn1-c1cccc(Cl)c1)c1ccc(CNS(N)(=O)=O)cc1 (stereo not shown) [Example B103, N-[[5-tert-Butyl-2-(3-chlorophenyl)-2H-pyrazol-3-yl]-methyl]-2-[4-[(sulfamoylamino)-methyl]-phenyl]-propionamide]",0.7
